Laboratory results taken from US11655448B2, “Placenta-derived matrix and methods of preparing and use thereof” (LIFENET HEALTH, priority 2015, dated 2023).

B1: Placental lactogen: human chorionic sommatomammotropin (aka placental lactogen) found in HuMATRIX (protein, UniProt P0DML2 27-217, looked up)
Chorionic somatomammotropin …: VQTVPLSRLFDHAMLQAHRAHQLAIDTYQEFEETYIPKDQKYSFLHDSQTSFCFSDSIPTPSNMEETQQKSNLELLRISLLLIESWLEPVRFLRSMFANNLVYDTSDSDDYHLLKDLEEGIQTLMGRLEDGSRRTGQILKQTYSKFDTNSHNHDALLKNYGLLYCFRKDMDKVETFLRMVQCRSVEGSCGF

Tests used:
[1] = tested on: dorsal root ganglia (DRGs); assay: Dorsal root ganglia attachment and growth on substrates; assay type: cell-based
Experimental: The ability for ectodermal cell attachment and growth on HuMATRIX was also assessed using dorsal root ganglia (DRGs). Near 100% attachment of DRGs was observed on HuMATRIX, Laminin, and decellularized placenta with urea extraction, but nearly no DRGs attached to culture plastic alone, with the cells stained for beta-III-tubulin and DAPI to assess the cell morphology.

MCF7 tumor cell = details: reported in the literature; cited from earlier work

| Molecule | attachment of DRGs [1] | increase in MCF7 tumor cell proliferation (MCF7 tumor cell) |
| --- | --- | --- |
| Laminin | ~100% |  |
| B1 |  | 4.4 fold |
